Test results taken from paper PMC4311893 (ChemMedChem, 2014).

Columns and labels:
[1] = biological target: dimethylarginine dimethylaminohydrolase-1 (DDAH-1) (Homo sapiens, UniProt O94760); assay: time-dependent inactivation kinetics in competition with ADMA; assay type: biochemical; details: read-out: Ki
[2] = biological target: T1, human arginase-I (Mn-hArgI) (Homo sapiens, UniProt P05089); assay: urea formation assay, IC50 […] with Cheng-Prusoff Ki; assay type: biochemical
T1 sequence (P05089 1-322): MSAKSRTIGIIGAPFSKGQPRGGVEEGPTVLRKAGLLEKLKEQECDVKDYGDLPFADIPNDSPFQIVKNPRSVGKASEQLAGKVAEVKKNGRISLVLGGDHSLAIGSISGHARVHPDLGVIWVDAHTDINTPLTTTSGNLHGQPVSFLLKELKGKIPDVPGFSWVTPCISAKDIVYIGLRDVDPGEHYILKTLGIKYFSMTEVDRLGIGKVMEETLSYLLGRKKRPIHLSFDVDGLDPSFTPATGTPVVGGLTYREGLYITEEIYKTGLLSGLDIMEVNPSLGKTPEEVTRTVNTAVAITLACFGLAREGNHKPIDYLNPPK

Chain of dimethylarginine dimethylaminohydrolase-1 (DDAH-1) (O94760 whole entry): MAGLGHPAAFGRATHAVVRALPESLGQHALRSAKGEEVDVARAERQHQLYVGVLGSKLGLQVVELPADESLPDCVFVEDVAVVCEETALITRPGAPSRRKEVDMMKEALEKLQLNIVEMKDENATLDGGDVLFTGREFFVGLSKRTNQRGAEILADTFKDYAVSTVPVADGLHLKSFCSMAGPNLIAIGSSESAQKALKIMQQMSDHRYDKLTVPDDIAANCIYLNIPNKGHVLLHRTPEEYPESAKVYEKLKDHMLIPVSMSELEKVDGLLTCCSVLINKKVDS

Question: `N=C(CCl)NCCC[C@H](N)C(=O)O` [Cl-NIO, N^5-(1-imino-2-chloroethyl)-L-ornithine] was tested. Which KI (inactivation) [1] did it give?
Answer: 1.3 ± 0.6 µM

Question: What about the Ki [2] of the same compound?
Answer: 3100 µM
